Data on nine compounds can be found in PMC9820167, “Design and Synthesis of Conformationally Flexible Scaffold as Bitopic Ligands for Potent D3-Selective Antagonists” (International Journal of Molecular Sciences, 2022).

What all share (assay): PDSP binding screen
The target of one experiment is Serotonin 5-HT1D (Homo sapiens, UniProt P28221).
Another experiment concerns the target Serotonin 5-HT6 (Homo sapiens, UniProt P50406).
The next experiment deals with T1, Adrenergic alpha1A (Homo sapiens, UniProt P35348).
T1 sequence (P35348 1-466): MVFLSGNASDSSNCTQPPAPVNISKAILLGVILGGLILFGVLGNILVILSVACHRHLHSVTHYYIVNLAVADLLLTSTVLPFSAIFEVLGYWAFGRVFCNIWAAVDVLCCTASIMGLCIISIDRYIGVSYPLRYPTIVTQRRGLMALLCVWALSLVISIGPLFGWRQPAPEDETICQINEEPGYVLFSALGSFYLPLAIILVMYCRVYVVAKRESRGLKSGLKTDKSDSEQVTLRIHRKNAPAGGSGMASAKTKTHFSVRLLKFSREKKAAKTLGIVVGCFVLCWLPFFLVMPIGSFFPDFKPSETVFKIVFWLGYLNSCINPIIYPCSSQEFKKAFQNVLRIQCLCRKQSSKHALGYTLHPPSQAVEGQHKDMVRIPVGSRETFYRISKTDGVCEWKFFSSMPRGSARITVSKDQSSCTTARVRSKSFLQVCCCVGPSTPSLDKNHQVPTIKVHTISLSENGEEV
Particulars: for inhibition at 10 µM: read-out: Ki (nM) or % inhibition at 10 µM: alpha1A.

Another experiment addresses T2, Adrenergic alpha2A (Homo sapiens, UniProt P08913).
T2 sequence (P08913 1-465): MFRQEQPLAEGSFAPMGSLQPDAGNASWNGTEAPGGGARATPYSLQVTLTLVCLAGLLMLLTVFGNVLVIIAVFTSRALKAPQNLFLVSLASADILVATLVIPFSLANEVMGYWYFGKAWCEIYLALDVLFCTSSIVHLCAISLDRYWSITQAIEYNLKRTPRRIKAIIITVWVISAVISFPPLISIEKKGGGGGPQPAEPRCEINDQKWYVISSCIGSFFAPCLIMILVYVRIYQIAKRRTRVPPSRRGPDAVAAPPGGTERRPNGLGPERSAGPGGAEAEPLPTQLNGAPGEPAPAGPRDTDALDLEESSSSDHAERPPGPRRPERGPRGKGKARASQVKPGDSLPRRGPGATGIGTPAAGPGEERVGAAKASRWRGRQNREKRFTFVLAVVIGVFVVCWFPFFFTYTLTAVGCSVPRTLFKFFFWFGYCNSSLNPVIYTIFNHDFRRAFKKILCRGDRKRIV

For another experiment, the target named is T3, Adrenergic alpha2B (Homo sapiens, UniProt P18089).
T3 sequence (P18089 1-450): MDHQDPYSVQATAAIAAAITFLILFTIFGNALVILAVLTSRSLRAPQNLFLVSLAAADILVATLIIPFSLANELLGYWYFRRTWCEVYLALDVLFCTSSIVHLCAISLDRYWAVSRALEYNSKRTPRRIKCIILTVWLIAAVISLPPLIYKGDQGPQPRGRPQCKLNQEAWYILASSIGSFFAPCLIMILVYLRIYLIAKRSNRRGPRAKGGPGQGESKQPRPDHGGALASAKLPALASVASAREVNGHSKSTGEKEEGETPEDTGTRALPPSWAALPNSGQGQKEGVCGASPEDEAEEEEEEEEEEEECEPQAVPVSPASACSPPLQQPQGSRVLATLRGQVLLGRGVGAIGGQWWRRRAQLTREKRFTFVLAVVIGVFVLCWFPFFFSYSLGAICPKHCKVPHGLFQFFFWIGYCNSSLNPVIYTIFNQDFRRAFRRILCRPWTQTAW

The next experiment addresses T4, Dopamine D4 (Homo sapiens, UniProt P21917).
T4 sequence (P21917 1-419): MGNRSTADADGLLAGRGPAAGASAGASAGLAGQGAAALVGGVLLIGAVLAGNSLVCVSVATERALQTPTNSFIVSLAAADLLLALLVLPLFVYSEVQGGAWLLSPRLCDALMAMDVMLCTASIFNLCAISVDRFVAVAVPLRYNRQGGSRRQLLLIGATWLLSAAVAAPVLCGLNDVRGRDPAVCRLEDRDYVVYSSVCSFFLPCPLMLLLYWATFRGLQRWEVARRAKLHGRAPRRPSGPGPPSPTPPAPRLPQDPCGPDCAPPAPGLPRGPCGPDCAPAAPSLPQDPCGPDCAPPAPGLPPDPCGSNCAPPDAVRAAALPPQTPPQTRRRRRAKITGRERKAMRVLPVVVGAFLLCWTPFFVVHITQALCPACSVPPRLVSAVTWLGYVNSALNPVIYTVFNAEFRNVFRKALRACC

A further experiment has as its target Histamine H4 (Homo sapiens, UniProt Q9H3N8). The following applies: for inhibition at 10 µM: read-out: Ki (nM) or % inhibition at 10 µM: H4.
The target in another experiment is T5, Muscarinic M1 (Homo sapiens, UniProt P11229).
T5 sequence (P11229 1-460): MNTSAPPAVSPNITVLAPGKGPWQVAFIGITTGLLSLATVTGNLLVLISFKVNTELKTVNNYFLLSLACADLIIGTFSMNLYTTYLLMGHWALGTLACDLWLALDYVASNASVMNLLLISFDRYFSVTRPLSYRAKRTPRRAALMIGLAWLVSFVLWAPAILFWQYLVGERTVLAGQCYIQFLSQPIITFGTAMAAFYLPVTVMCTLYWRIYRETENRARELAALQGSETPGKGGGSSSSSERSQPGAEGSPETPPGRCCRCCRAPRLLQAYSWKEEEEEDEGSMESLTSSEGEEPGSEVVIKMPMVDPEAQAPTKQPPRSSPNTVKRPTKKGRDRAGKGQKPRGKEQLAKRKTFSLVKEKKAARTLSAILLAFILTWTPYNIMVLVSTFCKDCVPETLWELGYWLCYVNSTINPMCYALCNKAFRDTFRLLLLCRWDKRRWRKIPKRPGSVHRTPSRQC
Particulars: for inhibition at 10 µM: read-out: Ki (nM) or % inhibition at 10 µM: M1.

The target in a further experiment is Muscarinic M3 (Homo sapiens, UniProt P20309). The following applies: for inhibition at 10 µM: read-out: Ki (nM) or % inhibition at 10 µM: M3.
Muscarinic M3, sequence (P20309 whole entry): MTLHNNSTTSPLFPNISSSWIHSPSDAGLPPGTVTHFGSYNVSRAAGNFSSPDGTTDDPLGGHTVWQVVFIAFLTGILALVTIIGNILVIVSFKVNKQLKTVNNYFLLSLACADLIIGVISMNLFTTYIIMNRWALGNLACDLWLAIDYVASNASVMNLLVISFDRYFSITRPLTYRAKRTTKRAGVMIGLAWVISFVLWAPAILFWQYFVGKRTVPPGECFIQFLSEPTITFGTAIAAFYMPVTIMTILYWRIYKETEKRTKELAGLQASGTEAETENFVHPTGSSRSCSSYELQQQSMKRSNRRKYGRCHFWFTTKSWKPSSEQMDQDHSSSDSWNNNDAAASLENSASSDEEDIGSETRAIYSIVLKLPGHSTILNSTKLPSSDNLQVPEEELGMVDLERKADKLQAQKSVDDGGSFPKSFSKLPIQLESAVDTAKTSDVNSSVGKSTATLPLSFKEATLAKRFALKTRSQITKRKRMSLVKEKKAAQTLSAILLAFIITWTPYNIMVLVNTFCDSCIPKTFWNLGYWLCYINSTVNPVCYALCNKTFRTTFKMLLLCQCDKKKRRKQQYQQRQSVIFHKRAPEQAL

Histamine H4, sequence (Q9H3N8 whole entry): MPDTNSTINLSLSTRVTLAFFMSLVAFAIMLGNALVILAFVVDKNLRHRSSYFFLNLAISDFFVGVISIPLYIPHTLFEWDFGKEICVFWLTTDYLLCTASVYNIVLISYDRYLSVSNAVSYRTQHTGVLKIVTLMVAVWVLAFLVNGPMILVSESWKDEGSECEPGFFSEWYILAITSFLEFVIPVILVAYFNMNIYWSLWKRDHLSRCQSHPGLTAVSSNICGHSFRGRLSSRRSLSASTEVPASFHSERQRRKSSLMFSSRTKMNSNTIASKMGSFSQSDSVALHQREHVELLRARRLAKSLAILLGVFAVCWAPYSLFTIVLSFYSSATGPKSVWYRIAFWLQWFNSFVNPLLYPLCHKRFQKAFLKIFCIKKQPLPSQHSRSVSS
Serotonin 5-HT1D, sequence (P28221 whole entry): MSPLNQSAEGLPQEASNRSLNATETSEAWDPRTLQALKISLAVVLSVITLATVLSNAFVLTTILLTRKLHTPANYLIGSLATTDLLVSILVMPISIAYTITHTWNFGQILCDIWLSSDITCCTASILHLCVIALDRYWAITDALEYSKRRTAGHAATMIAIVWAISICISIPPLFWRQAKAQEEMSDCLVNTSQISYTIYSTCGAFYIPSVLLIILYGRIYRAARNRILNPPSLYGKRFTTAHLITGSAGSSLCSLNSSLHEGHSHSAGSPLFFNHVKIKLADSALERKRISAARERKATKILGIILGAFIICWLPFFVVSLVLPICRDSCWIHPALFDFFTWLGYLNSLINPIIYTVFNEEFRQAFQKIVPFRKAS
Serotonin 5-HT6, sequence (P50406 whole entry): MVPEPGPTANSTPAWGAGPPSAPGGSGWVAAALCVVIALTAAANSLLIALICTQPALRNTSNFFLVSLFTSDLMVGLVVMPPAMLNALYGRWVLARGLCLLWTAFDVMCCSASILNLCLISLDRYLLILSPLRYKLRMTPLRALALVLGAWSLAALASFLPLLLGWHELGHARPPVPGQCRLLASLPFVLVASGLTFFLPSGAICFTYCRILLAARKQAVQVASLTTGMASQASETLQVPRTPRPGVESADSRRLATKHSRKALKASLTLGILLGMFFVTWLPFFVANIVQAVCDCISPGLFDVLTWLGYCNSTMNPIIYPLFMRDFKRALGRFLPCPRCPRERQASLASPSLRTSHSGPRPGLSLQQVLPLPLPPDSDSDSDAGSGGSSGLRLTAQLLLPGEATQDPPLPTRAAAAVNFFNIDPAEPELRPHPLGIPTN

What is called Ki is a measure of affinity in units of concentration, obtained from inhibition or displacement. High values mean lower affinity, low ones higher affinity. As usually defined, the inhibition is how much of the control response was suppressed. Regarding `CCN(CCCNC(=O)c1cc2ccccc2n1C)CCNC(=O)c1cc(Br)cc(OC)c1OC` [21j, N-(3-((2-(5-Bromo-2,3-dimethoxybenzamido)ethyl)(ethyl)amino)propyl)-1-methyl-1H-indole-2-carboxamide], the Ki was 1.93 µM on Serotonin 5-HT1D; 1.31 µM on Serotonin 5-HT6; 3.11 µM at Adrenergic alpha2A; 0.646 µM at Adrenergic alpha2B; 0.878 µM at Dopamine D4. The inhibition at 10 µM at Adrenergic alpha1A, at Histamine H4, on Muscarinic M1 and at Muscarinic M3 was less than 50% in each case.

As for `CCCN(CCCNC(=O)c1ccc(-c2cccs2)cc1)CCNC(=O)c1cc(Br)cc(OC)c1OC` [20a, 5-Bromo-2,3-dimethoxy-N-(2-(propyl(3-(4-(thiophen-2-yl)benzamido)propyl)amino)ethyl)benzamide], the Ki at Serotonin 5-HT1D amounted to 0.449 µM; on Serotonin 5-HT6, 0.258 µM; at Adrenergic alpha1A it was 2.21 µM; on Adrenergic alpha2A, 0.74 µM; at Adrenergic alpha2B, 0.672 µM; on Dopamine D4, 0.938 µM. The same compound came in with a Ki at Histamine H4 of 3.46 µM. The inhibition at 10 µM at Muscarinic M1 and at Muscarinic M3 was less than 50% each time.

In the case of `CCN(CCCNC(=O)c1ccc(-c2ccncc2)cc1)CCNC(=O)c1cc(Br)cc(OC)c1OC` [21c, 5-Bromo-N-(2-(ethyl(3-(4-(pyridin-4-yl)benzamido)propyl)amino)ethyl)-2,3-dimethoxybenzamide], the Ki was determined as 1.15 µM on Serotonin 5-HT1D; 1.86 µM on Serotonin 5-HT6; 2.58 µM on Adrenergic alpha2A; 0.909 µM at Adrenergic alpha2B; 2.18 µM on Dopamine D4; 3.39 µM on Muscarinic M1. The inhibition at 10 µM at Adrenergic alpha1A, at Histamine H4 and at Muscarinic M3 was less than 50% throughout.

As for `CCN(CCCNC(=O)c1ccsc1)CCNC(=O)c1cc(Br)cc(OC)c1OC` [21i, N-(3-((2-(5-Bromo-2,3-dimethoxybenzamido)ethyl)(ethyl)amino)propyl)thiophen-e-3-carboxamide], the inhibition constant (Ki) on Serotonin 5-HT1D turned out to be 3.14 µM; at Serotonin 5-HT6 it was 2.16 µM; at Adrenergic alpha2A, 3.34 µM; on Adrenergic alpha2B, 2.95 µM; at Dopamine D4, 0.514 µM. In addition, the inhibition at 10 µM on Adrenergic alpha1A, at Histamine H4, on Muscarinic M1 and on Muscarinic M3 was less than 50% each time.

With `CCN(CCCNC(=O)c1ccc(-c2cccs2)cc1)CCNC(=O)c1cc(Br)cc(OC)c1OC` [9a, 5-Bromo-N-(2-(ethyl(3-(4-(thiophen-2-yl)benzamido)propyl)amino)ethyl)-2,3-dimethoxybenzamide], the Ki on Serotonin 5-HT1D was 1.01 µM; on Serotonin 5-HT6, 0.287 µM; at Adrenergic alpha2A, 1.35 µM; on Adrenergic alpha2B it was 0.235 µM; on Dopamine D4 it was 0.579 µM; on Histamine H4 it was 6.42 µM. The inhibition constant (Ki) on Muscarinic M1 worked out at 2.35 µM; on Muscarinic M3, 4.75 µM. For the same compound, the inhibition at 10 µM at Adrenergic alpha1A was less than 50%.

In the case of `CCN(CCCNC(=O)c1ccc(-c2ccsc2)cc1)CCNC(=O)c1cc(Br)cc(OC)c1OC` [21g, 5-Bromo-N-(2-(ethyl(3-(4-(thiophen-3-yl)benzamido)propyl)amino)ethyl)-2,3-dimethoxybenzamide], the Ki on Serotonin 5-HT1D came to 1.82 µM; on Serotonin 5-HT6, 0.363 µM; at Adrenergic alpha1A, 2.11 µM; at Adrenergic alpha2A it was 1.16 µM; at Adrenergic alpha2B, 0.571 µM; at Dopamine D4, 0.582 µM. On Muscarinic M1, this compound came in with a Ki of 3.43 µM. In addition, the inhibition at 10 µM on Histamine H4 and on Muscarinic M3 was less than 50% in each case.

For the compound `CCN(CCCNC(=O)c1ccc2ccccc2c1)CCNC(=O)c1cc(Br)cc(OC)c1OC` [21a, N-(3-((2-(5-Bromo-2,3-dimethoxybenzamido)ethyl)(ethyl)amino)propyl)-2-naphthamide], the inhibitory constant (Ki) is 1.2 µM at Serotonin 5-HT1D; 0.73 µM at Serotonin 5-HT6; 1.97 µM at Adrenergic alpha2A; 0.577 µM on Adrenergic alpha2B; 0.377 µM at Dopamine D4; 1.26 µM on Muscarinic M3. The inhibition at 10 µM at Adrenergic alpha1A, on Histamine H4 and at Muscarinic M1 was less than 50% throughout.

In the case of `CCN(CCCNC(=O)c1cc2ccccc2[nH]1)CCNC(=O)c1cc(Br)cc(OC)c1OC` [21d, N-(3-((2-(5-Bromo-2,3-dimethoxybenzamido)ethyl)(ethyl)amino)propyl)-1H-indole-2-carboxamide], the Ki on Serotonin 5-HT1D was 1.66 µM; on Serotonin 5-HT6 it was 1.63 µM; at Adrenergic alpha2A, 2.14 µM; on Adrenergic alpha2B it was 0.386 µM; on Dopamine D4, 0.239 µM; on Muscarinic M1, greater than 10 µM. Moreover, the inhibition at 10 µM on Adrenergic alpha1A, at Histamine H4 and at Muscarinic M3 was less than 50% in each case.

Turning to `CCN(CCCNC(=O)c1cn2ccccc2n1)CCNC(=O)c1cc(Br)cc(OC)c1OC` [21e, N-(3-((2-(5-Bromo-2,3-dimethoxybenzamido)ethyl)(ethyl)amino)propyl)imidazo[1,2-a]pyridine-2-carboxamide], the inhibition at 10 µM at Serotonin 5-HT1D (read-out: Ki (nM) or % inhibition at 10 µM: 5-HT1D), on Adrenergic alpha1A, on Dopamine D4 (read-out: Ki (nM) or % inhibition at 10 µM: D4), on Histamine H4 and at Muscarinic M1 was less than 50% each time. Further, the Ki is 2.33 µM on Serotonin 5-HT6, 5.57 µM at Adrenergic alpha2A, 2.83 µM on Adrenergic alpha2B and 1.55 µM on Muscarinic M3.
